Test results from US20240327392A1, “HETEROCYCLOALKYL-SUBSTITUTED POLYHETEROAZOLE DERIVATIVES AS MEDICAMENTS FOR TREATING AND/OR PREVENTING RS VIRUS INFECTIONS” (ALBIUS SCIENCES ALPHA PRIVATE LIMITED, priority 2021, published 2024).

The compounds below were run on human RS virus A2 strain (assay: In vitro test for anti-RS virus proliferation inhibitory activity (quantitative RT-PCR of RS virus RNA copy number in infected Vero cells)). Settings: 72 h; Vero cells infected with human RS virus A2 strain, 3 days of incubation, RS virus N gene RNA copy number by quantitative RT-PCR; read-out: Anti-RS virus Activity.
Type: cell-based
Protocol: A mixture of Vero cells (3.4×10^5 cells/mL) and human RS virus A2 strain (1.7×10^4 TCID50/mL) (EMEM medium supplemented with 10% FCS) was added to a 96-well plate at 50 μL/well, and the 10% FCS-supplemented EMEM medium adjusted to the desired final concentration of the compounds to be tested was added at 50 μL/well, followed by incubating the plate at 37° C. in the presence of 5% CO2 at 37° C. After 3 days of incubation, the supernatant was removed, the cells were washed with PBS(−), and the cell lysis buffer supplied with the SingleShot (registered trademark) Cell Lysis Kit (Bio-Rad) was added dropwise at 50 μL/well to lysis the cells thereby providing the cell lysate.
Human RS virus RNA copy number in the cell lysate was determined by quantitative RT-PCR using iTaq Universal SYBR Green One-Step Kit (Bio-Rad). Specifically, primers targeting human RS virus N gene (Rameix-Welti et al, Nat Commun5: 5104, 2014. doi: 10.1038/ncomms6104) was used to prepare the reaction solution according to the instructions provided with the kit, and a 96-well PikoReal Real-Time PCR System (TCR0096, Thermo Fisher Scientific) was used to detect PCR reaction and signal assay.
The copy number was calculated by the relative method using the comparative Ct method using compound-free virus-infected cells as controls.

Row | IC50 [µM] | Structure (SMILES)
1 | > 50 | O=S(=O)(c1ccccc1)N1C[C@H](O)C[C@H]1c1nc(CCCc2ccccc2)no1 [Compound 3D, 3-(3-phenylpropyl)-5-[(2S,4R)-1-benzenesulfonyl-4-hydroxypyrrolidin-2-yl]-1,2,4-oxadiazole]
2 | > 50 | NC(=O)c1ccc2cc(C(=O)N3C[C@H](O)C[C@H]3c3nc(CCCc4ccccc4)no3)ccc2c1 [Compound 4-5]

Row | Structure (SMILES) | IC50 [µM]
3 | CC(C)(C)O[C@@H]1C[C@@H](c2nc(CCCc3ccccc3)no2)N(C(=O)c2ccc3cc(C(=O)N4C[C@H](OC(C)(C)C)C[C@H]4c4nc(CCCc5ccccc5)no4)ccc3c2)C1 [Compound 4-4, Naphthalene-2,6-diylbis (((2S,4R)-4-(tert-butoxy)-2-(3-(3-phenylpropyl)-1,2,4-oxadiazol-5-yl)pyrrolidin-1-yl)methanone)] | > 50

Same assay, conditions: 72 h; Vero cells infected with human RS virus A2 strain, 3 days of incubation, RS virus RNA copy number by quantitative RT-PCR; read-out: Anti-RS virus Activity

Row | IC50 [µM] | Structure (SMILES)
4 | 10 to 50 | CC(C)[C@@H]1CC[C@@H](C)C[C@H]1OC(=O)N1CCC[C@H]1c1nc(CCCc2ccccc2)no1 [Compound 1N, (−)-menthyl (S)-2-(3-(3-phenylpropyl)-1,2,4-oxadiazol-5-yl) pyrrolidine-1-carboxylate]
5 | > 50 | CC(C)NC(=O)N1CCC[C@H]1c1nc(CCCc2ccccc2)no1 [Compound 1G, (S)—N-isopropyl-2-(3-(3-phenylpropyl)-1,2,4-oxadiazol-5-yl)pyrrolidine-1-carboxamide]
6 | 10 to 50 | O=C(NCc1cnc2ccccc2c1)N1[C@@H]2CC[C@@H](C2)[C@H]1c1nnc(Cc2cc3ccccc3[nH]2)[nH]1 [Compound 28AH]
7 | < 10 | CC(C)(C)OC(=O)N1[C@@H]2CC[C@@H](C2)[C@H]1c1nc(CCc2ccccc2)no1 [Compound 14-1, Tert-butyl (1R,3S,4S)-3-(3-phenethyl-1,2,4-oxadiazol-5-yl)-2-azabicyclo[2.2.1]heptane-2-carboxylate]
8 | 10 to 50 | Cc1oc([C@@H]2CCCCN2S(=O)(=O)C2CCCCC2)nc1C(=O)O [Compound 33B, (S)-2-(1-(Cyclohexylsulfonyl)piperidin-2-yl)-5-methyl oxazole-4-carboxylic acid]
9 | < 10 | Cc1sc([C@@H]2CCCCN2S(=O)(=O)C2CCCCC2)nc1C(=O)O [Compound 36B, (S)-2-(1-(Cyclohexylsulfonyl)piperidin-2-yl)-5-methyl thiazole-4-carboxylic acid]
10 | < 10 | CC(C)CS(=O)(=O)N1CC2(CC2)C[C@H]1c1nc(CCCc2ccccc2)no1 [Compound 5A, 3-(3-phenylpropyl)-5-{(6S)-5-isobutylsulfonyl-5-azaspiro[2.4]hept-6-yl}-1,2,4-oxadiazole]
11 | < 10 | CC(C)(C)OC(=O)N1C[C@H](c2ccccc2)C[C@H]1c1nc(CCCCCc2ccccc2)no1 [Compound C5-7-1, Tert-butyl (2S,4S)-4-phenyl-2-(3-(5-phenylpentyl)-1,2,4-oxadiazol-5-yl)pyrrolidine-1-carboxylate]
12 | < 10 | Cc1sc([C@@H]2CCCCN2S(=O)(=O)C2CCCCC2)nc1C(=O)NCc1ccccc1 [Compound 37B, (S)—N-Benzyl-2-(1-(cyclohexylsulfonyl)piperidin-2-yl)-5-methylthiazole-4-carboxamide]
13 | < 10 | COc1ccc(S(=O)(=O)N2C[C@H](c3ccccc3)C[C@H]2c2nc(CCCc3ccccc3)no2)cc1 [Compound 7AI, 5-((2S,4S)-1-((4-methoxyphenyl)sulfonyl)-4-phenylpyrrolidin-2-yl)-3-(3-phenylpropyl)-1,2,4-oxadiazole]
14 | < 10 | O=S(=O)(c1ccc(F)cc1)N1CC2(CC2)C[C@H]1c1nc(CCCc2ccccc2)no1 [Compound 5AJ, (S)-5-(5-((4-fluorophenyl)sulfonyl)-5-azaspiro[2.4]heptan-6-yl)-3-(3-phenylpropyl)-1,2,4-oxadiazole]
15 | < 10 | O=S(=O)(c1ccccc1)N1CC(CC2CCC2)CC1c1nc(CCCc2ccccc2)no1 (stereo not shown) [Compound 6D, 3-(3-phenylpropyl)-5-(1-benzenesulfonyl-4-cyclobutylmethylpyrrolidin-2-yl)-1,2,4-oxadiazole]
16 | < 10 | Fc1ccc(CN2CCC[C@H]2c2nc(CCCc3ccccc3)no2)cc1 [Compound 1V, (S)-5-(1-(4-fluorobenzyl)pyrrolidin-2-yl)-3-(3-phenylpropyl)-1,2,4-oxadiazole]
17 | > 50 | CC(C)(C)NC(=O)N1CCC[C@H]1c1nc(CCCc2ccccc2)no1 [Compound 1H, (S)—N-(tert-butyl)-2-(3-(3-phenylpropyl)-1,2,4-oxadiazol-5-yl) pyrrolidine-1-carboxamide]
18 | < 10 | CN(C)c1ccc(S(=O)(=O)N2CC3(CC3)C[C@H]2c2nc(CCCc3ccccc3)no2)cc1 [Compound 5AK, (S)-N,N-dimethyl-4-((6-(3-(3-phenylpropyl)-1,2,4-oxadiazole-5-yl)-5-azaspiro[2.4]heptan-5-yl)sulfonyl)aniline]
19 | 10 to 50 | CC(C)(C)OC(=O)N1CCCC[C@H]1c1noc(CCc2ccccc2)n1 [Compound C2-16-1, Tert-butyl (S)-2-(5-phenethyl-1,2,4-oxadiazol-3-yl) piperidine-1-carboxylate]
20 | 10 to 50 | O=S(=O)(C1CCCCC1)N1CCCCC1c1ncc(-c2ccccc2)[nH]1 (stereo not shown) [Compound 40B]
21 | 10 to 50 | CC(C)(C)OC(=O)N1C[C@@H](C#N)C[C@H]1c1nc(CCCc2ccccc2)no1 [Compound 41-1, Tert-butyl (2S,4S)-4-cyano-2-(3-(3-phenylpropyl)-1,2,4-oxadiazol-5-yl)pyrrolidine-1-carboxylate]
22 | < 10 | O=S(=O)(c1ccc(F)cc1)N1CC(CC2CCC2)CC1c1nc(CCCc2ccccc2)no1 (stereo not shown) [Compound 6AJ, 5-(4-(cyclobuthylmethyl)-1-((4-fluorophenyl)sulfonyl)pyrrolidin-2-yl)-3-(3-phenylpropyl)-1,2,4-oxsdiazole]
23 | 10 to 50 | CC(C)(C)NC(=O)N1[C@@H]2CC[C@@H](C2)[C@H]1c1nnc(Cc2c[nH]c3ccccc23)[nH]1 [Compound 24H, (1R,3S,4S)-3-(5-((1H-indol-3-yl)methyl)-4H-1,2,4-triazol-3-yl)-N-(tert-butyl)-2-azabicyclo[2.2.1]heptane-2-carboxamide]
24 | 10 to 50 | COC(=O)N1CCC[C@H]1c1nc(CCCc2ccccc2)no1 [Compound 1K, Methyl (S)-2-(3-(3-phenylpropyl)-1,2,4-oxadiazol-5-yl) pyrrolidine-1-carboxylate]
25 | < 10 | CN(C)c1ccc(S(=O)(=O)N2C[C@H](c3ccccc3)C[C@H]2c2nc(CCCc3ccccc3)no2)cc1 [Compound 7AK, N,N-dimethyl-4-(((2S,4S)-4-phenyl2-(3-(3-phenylpropyl)-1,2,4-oxadiazole-5-yl)pyrrolidin-1-yl)sulfonyl)aniline]
26 | < 10 | CC(C)(C)S(=O)(=O)N1CCCC[C@H]1c1nc(CCCc2ccccc2)no1 [Compound 2X, (S)-5-(1-(tert-butylsulfonyl)piperidin-2-yl)-3-(3-phenylpropyl)-1,2,4-oxadiazole]
27 | < 10 | O=S(=O)(Cc1ccccc1)N1CC(CC2CCC2)CC1c1nc(CCCc2ccccc2)no1 (stereo not shown) [Compound 6E, 3-(3-phenylpropyl)-5-(1-benzylsulfonyl-4-cyclobutylmethylpyrrolidin-2-yl)-1,2,4-oxadiazole]
28 | 10 to 50 | CC(C)(C)OC(=O)N1C[C@H](c2ccccc2)C[C@H]1c1nc(CCc2ccccc2)no1 [Compound C2-7-1, Tert-butyl (2S,4S)-2-(3-phenethyl-1,2,4-oxadiazol-5-yl)-4-phenylpyrrolidine-1-carboxylate]
29 | < 10 | CC(C)(C)OC(=O)N1CCC(S(=O)(=O)N2C[C@H](c3ccccc3)C[C@H]2c2nc(CCCc3ccccc3)no2)CC1 [Compound 7AO]
30 | 10 to 50 | O=C(NCc1noc([C@@H]2C[C@@H](c3ccccc3)CN2S(=O)(=O)c2ccc(F)cc2)n1)c1ccc2ccccc2n1 [Compound 45AJ, N-((5-((2S,4S)-1-((4-fluorophenyl)sulfonyl)-4-phenylpyrrolidin-2-yl)-1,2,4-oxadiazol-3-yl)methyl)quinoline-2-carboxamide]
31 | 10 to 50 | O=S(=O)(N1CCCCC1)N1C[C@H](F)C[C@H]1c1nc(CCCc2ccccc2)no1 [Compound 8AD, 5-((2S,4R)-4-fluoro-1-(piperidin-1-ylsulfonyl)pyrrolidin-2-yl)-3-(3-phenylpropyl)-1,2,4-oxadiazole]
32 | 10 to 50 | CCOC(=O)C1CCN(S(=O)(=O)N2CCCC[C@H]2c2nc(CCCc3ccccc3)no2)CC1 [Compound 2AC, Ethyl (S)-1-((2-(3-(3-phenylpropyl)-1,2,4-oxadiazol-5-yl)piperidin-1-yl)sulfonyl)piperidine-4-carboxylate]
33 | 10 to 50 | O=S(=O)(N1CCOCC1)N1CC2(CC2)C[C@H]1c1nc(CCCc2ccccc2)no1 [Compound 5AE, (S)-4-((6-(3-(3-phenylpropyl)-1,2,4-oxadiazole-5-yl)-5-azaspiro[2.4]heptan-5-yl)sulfonyl)morpholine]

Row | Structure (SMILES) | IC50 [µM]
34 | CC(C)(C)OC(=O)N1CC2(CC2)C[C@H]1c1nc(CCCc2ccccc2)no1 [Compound 5-1, 3-(3-phenylpropyl)-5-{(6S)-5-tert-butoxycarbonyl-5-azaspiro[2.4]hept-6-yl}-1,2,4-oxadiazole] | < 10
